Reference: patent publication US4020076A, “Novel phosphoryloxy-thiazoles” (priority 1974, dated 1977)
Read-outs that look alike come from different tables or passages of the source.

Key:
Assay type in all cases: in vivo
Drosophila melanogaster = assay: Vapor activity against Drosophila melanogaster; details: inhaled or nasal, read-out: percentage of mortality
Experimental: a. Activity against Drosophila melanogaster
This test measures the vapor activity of the compounds and the less than 48 hours old insects were placed in a Petri dish with a 10 cm diameter connected by a tergal screen to a crystallizer of the same diameter in which the test compound in acetone solution is placed. The said solution is evaporated after the insects have been placed and 3 tests with 25 insects were run for each concentration. The results are expressed in Table I as a percentage of mortality after 1, 2, 4 and 6 hours.

Blattella germanica = assay: Topical application activity against Blattella germanica; details: read-out: percent of mortality
Experimental: b. Activity against Blattella germanica
This test was a topical application in which adult male Blattella germanica received 2 microliters of an acetone solution of the test products between the second and third pair of paws. After this treatment, the test insects were held in a dim light at 20° C and were fed. The results expressed as percent of mortality in Table II were read 24 and 48 hours and 5 days after the treatment.

Sitophilus granarius = assay: Topical application test against Sitophilus granarius; details: read-out: percent mortality
Experimental: c. Test against Sitophilus granarius
This topical application test comprised preparing the test compounds in acetone solution at concentrations of 5000, 500 and 50 mg of the active compound per liter and 0.2 μl of the solutions were applied to the ventral thorax of 50 Sitophilus granarius for each concentration.

Musca domestica = assay: Topical application activity against Musca domestica; details: read-out: percent of mortality
Experimental: d. Activity against Musca domestica
This topical application test consisted of placing a microliter of an acetone solution of the test product on the dorsal thorax of Musca domestica after having been put to sleep with ether. The insects were held at 20° C and 50% relative humidity and were fed milk and water.

Spodoptera littoralis = assay: Ingestion test against Spodoptera littoralis caterpillars; details: po, read-out: percent of mortality
Experimental: e. Activity against Spodoptera littoralis
This test was effected with Spodoptera littoralis caterpillars 1 to 1.5 cm long and an average of 10 days old. In this ingestion test, 4 ml of an acetone solution of the test products was placed on lettuce rings with an 8 mm diameter which were placed in closed plastic dishes with a 5 cm diameter. 15 caterpillars were placed in each dish and were held at 20° C and 50% relative humidity and were fed when the insects had eaten the treated lettuce ring.

Musca domestica larvae = assay: Contact-ingestion test against Musca domestica larvae; details: read-out: percent of mortality
Experimental: g. Activity against Musca domestica larvae
This contact-ingestion test consisted of placing 2 ml of an acetone solution of different concentrations of the test product on 1 g of bran placed in a watch glass and the solvent was evaporated. The treated bran was placed in a plastic dish and was admixed with 2 ml of milk. 20 3 to 4 day old larvae of Musca domestica were added to the bran and were held at 20° C and 30% relative humidity and 3 tests were conducted for each concentration.

[1] = test system: Ditylenchus Myceliophagus; assay: Acaricide activity, Ditylenchus Myceliophagus; details: 24 h, read-out: Percent of mortality after 24 hours; for mortality at 1 µg/mL: 0.001 g/l; for mortality at 10 µg/mL: 0.010 g/l; for mortality at 100 µg/mL: 0.1 g/l
Experimental: In an apparatus containing 10 ml of an aqueous solution of the test product, 0.5 ml of water containing about 2000 acariens of Ditylenchus Myceliophagus were added thereto and the percent of mortality was determined by a binocular magnifying glass after 24 hours.

Panagrellus silusiae = assay: Nematocidal activity against Panagrellus silusiae
Experimental: b. Activity against Panagrellus silusiae
30 nematodes were placed on a watch glass and three tests were run for each concentration. The 3 watch glasses for each treatment were placed in a Petri dish with a 15 cm diameter containing a film of water in a manner to retard evaporation of the solution to wet the nematodes. The concentration of the product was 125 mg of MA/L and 1 ml of toxic solution was placed on each watch glass containing the nematodes in 0.5 ml of water.

Meloidogynes spec = assay: Nematocidal activity against Meloidogynes spec (tomato root galls); details: 25 Kg/ha
Experimental: a. Activity against Meloidogynes spec
A volume of about 3 liters of dirt infested with Meloidogynes spec was placed in a plastic sack. Nematocidal treatments are considered effective to a depth of 30 cm, a volume of 3 liters of dirt corresponding to a surface area of 100 cm^ 2 or 10^-^6 ha (since 100 cm^ 2 × 30 cm = 3000 ml or 3 liters). Each volume of infested dirt received 100 ml of an aqueous suspension containing 0.250 g of the test product (corresponding to 250 Kg/ha) and the controls received only 100 ml of water. The plastic sacks containing the dirt were immediately sealed after the treatment and then agitated to obtain a good distribution of the product. Two weeks after the treatment, the sacks were opened and the dirt was used to plant 3 tomato plants of St. Pierre variety. The plants used were raised in the greenhouse with dirt sterilized with heat to obtain plants free of nematodes. Three plants were used for each test which was run 6 times for each treatment. Two months after planting the tomatoes were removed from the dirt and the efficacy was determined by counting the number of galls observed on the roots. A correlation between the population of Meloidogynes in the pot and the number of galls exists.

CCOc1nc(OP(=S)(OCC)OCC)c(C#N)s1 [A, 2-ethoxy-4-diethoxythiophosphoryloxy-5-cyano-thiazole]
mortality at 5 ppm (Drosophila melanogaster; 1 H): 99% | mortality at 50 ppm (Drosophila melanogaster; 1 H): 100% | mortality at 500 ppm (Drosophila melanogaster; 1 H): 100% | mortality at 5 ppm (Drosophila melanogaster; 4 H): 100% | mortality at 50 ppm (Drosophila melanogaster; 4 H): 100% | mortality at 500 ppm (Drosophila melanogaster; 4 H): 100% | mortality at 5 ppm (Drosophila melanogaster; 6 H): 100% | mortality at 50 ppm (Drosophila melanogaster; 6 H): 100% | mortality at 500 ppm (Drosophila melanogaster; 6 H): 100% | mortality at 312.5 ppm (Blattella germanica; 24 H): 65% | mortality at 625 ppm (Blattella germanica; 24 H, 625 ppm): 100% | mortality at 1250 ppm (Blattella germanica; 24 H, 1250 ppm): 100% | mortality at 312.5 ppm (Blattella germanica; 48 H): 70% | mortality at 625 ppm (Blattella germanica; 48 H, 625 ppm): 100% | mortality at 1250 ppm (Blattella germanica; 48 H, 1250 ppm): 100% | mortality at 625 ppm (Blattella germanica; 120 h): 30% | mortality at 1250 ppm (Blattella germanica; 120 h): 100% | mortality at 50 ppm (Sitophilus granarius; 4 H): 0% | mortality at 500 ppm (Sitophilus granarius; 4 H): 100% | mortality at 5000 ppm (Sitophilus granarius; 4 H): 100% | mortality at 50 ppm (Sitophilus granarius; 24 H): 0% | mortality at 500 ppm (Sitophilus granarius; 24 H): 100% | mortality at 5000 ppm (Sitophilus granarius; 24 H): 100% | mortality at 50 ppm (Sitophilus granarius; 120 h, 5 Days): 0% | mortality at 500 ppm (Sitophilus granarius; 120 h, 5 Days): 100% | mortality at 5000 ppm (Sitophilus granarius; 120 h, 5 Days): 100% | mortality at 500 ppm (Musca domestica; 1 H): 91% | mortality at 2500 ppm (Musca domestica; 1 H): 100% | mortality at 5000 ppm (Musca domestica; 1 H): 100% | mortality at 500 ppm (Musca domestica; 24 H): 94% | mortality at 2500 ppm (Musca domestica; 24 H): 100% | mortality at 5000 ppm (Musca domestica; 24 H): 100% | mortality at 62.5 ppm (Spodoptera littoralis; 1 H, 62.5 ppm, ingestion): 0% | mortality at 125 ppm (Spodoptera littoralis; 1 H, 125 ppm, ingestion): 0% | mortality at 250 ppm (Spodoptera littoralis; 1 H, 250 ppm, ingestion): 0% | mortality at 62.5 ppm (Spodoptera littoralis; 48 H, 62.5 ppm, ingestion): 80% | mortality at 125 ppm (Spodoptera littoralis; 48 H, 125 ppm, ingestion): 100% | mortality at 250 ppm (Spodoptera littoralis; 48 H, 250 ppm, ingestion): 100% | mortality at 62.5 ppm (Spodoptera littoralis; 24 h): 60% | mortality at 125 ppm (Spodoptera littoralis; 24 h): 100% | mortality at 250 ppm (Spodoptera littoralis; 24 h): 90% | mortality at 500 ppm (Musca domestica larvae; 48 H): 37% | mortality at 5000 ppm (Musca domestica larvae; 48 H): 64% | mortality at 500 ppm (Musca domestica larvae; 192 h, 8 Days): 63% | mortality at 5000 ppm (Musca domestica larvae; 192 h, 8 Days): 92% | mortality at 1 µg/mL [1]: 81.8% | mortality at 10 µg/mL [1]: 91.6% | mortality at 100 µg/mL [1]: 100%

CCCCOc1nc(OP(=S)(OC)OC)c(C#N)s1 [Compound B, 2-n-butoxy-4-dimethoxythiophosphoryloxy-5-cyano-thiazole]
mortality at 5 ppm (Drosophila melanogaster; 1 H): 0% | mortality at 50 ppm (Drosophila melanogaster; 1 H): 77% | mortality at 500 ppm (Drosophila melanogaster; 1 H): 100% | mortality at 5 ppm (Drosophila melanogaster; 4 H): 100% | mortality at 50 ppm (Drosophila melanogaster; 4 H): 100% | mortality at 500 ppm (Drosophila melanogaster; 4 H): 100% | mortality at 5 ppm (Drosophila melanogaster; 6 H): 100% | mortality at 50 ppm (Drosophila melanogaster; 6 H): 100% | mortality at 500 ppm (Drosophila melanogaster; 6 H): 100% | mortality at 50 ppm (Sitophilus granarius; 4 H): 0% | mortality at 500 ppm (Sitophilus granarius; 4 H): 96% | mortality at 5000 ppm (Sitophilus granarius; 4 H): 100% | mortality at 50 ppm (Sitophilus granarius; 24 H): 0% | mortality at 500 ppm (Sitophilus granarius; 24 H): 100% | mortality at 5000 ppm (Sitophilus granarius; 24 H): 100% | mortality at 50 ppm (Sitophilus granarius; 120 h, 5 Days): 0% | mortality at 500 ppm (Sitophilus granarius; 120 h, 5 Days): 100% | mortality at 5000 ppm (Sitophilus granarius; 120 h, 5 Days): 100% | mortality at 500 ppm (Musca domestica; 1 H): 96% | mortality at 2500 ppm (Musca domestica; 1 H): 100% | mortality at 5000 ppm (Musca domestica; 1 H): 100% | mortality at 500 ppm (Musca domestica; 24 H): 100% | mortality at 2500 ppm (Musca domestica; 24 H): 100% | mortality at 5000 ppm (Musca domestica; 24 H): 100% | mortality at 125 ppm (Spodoptera littoralis; 1 H, 125 ppm, ingestion): 0% | mortality at 250 ppm (Spodoptera littoralis; 1 H, 250 ppm, ingestion): 0% | mortality at 500 ppm (Spodoptera littoralis; 1 H, ingestion): 0% | mortality at 125 ppm (Spodoptera littoralis; 24 H, 125 ppm, ingestion): 50% | mortality at 250 ppm (Spodoptera littoralis; 24 H, 250 ppm, ingestion): 100% | mortality at 500 ppm (Spodoptera littoralis; 24 H, ingestion): 100% | mortality at 125 ppm (Spodoptera littoralis; 48 H, 125 ppm, ingestion): 90% | mortality at 250 ppm (Spodoptera littoralis; 48 H, 250 ppm, ingestion): 100% | mortality at 500 ppm (Spodoptera littoralis; 48 H, ingestion): 100% | mortality at 500 ppm (Musca domestica larvae; 48 H): 88% | mortality at 5000 ppm (Musca domestica larvae; 48 H): 93% | mortality at 500 ppm (Musca domestica larvae; 192 h, 8 Days): 98% | mortality at 5000 ppm (Musca domestica larvae; 192 h, 8 Days): 98% | mortality at 1 µg/mL [1]: 43.3% | mortality at 10 µg/mL [1]: 95.9% | mortality at 100 µg/mL [1]: 98.5% | mortality at 1 µg/mL (Panagrellus silusiae; 0.001 g/l, 24 hours): 89.3% | mortality at 10 µg/mL (Panagrellus silusiae; 0.01 g/l, 24 hours): 100% | mortality at 100 µg/mL (Panagrellus silusiae; 24 h, read-out: % of mortality): 100%

CCOc1nc(OP(=O)(OC)OC)c(C#N)s1 [Compound D, 2-ethoxy-4-dimethoxyphosphoryloxy-5-cyano-thiazole]
mortality at 500 ppm (Drosophila melanogaster; 2 H): 100% | mortality at 500 ppm (Drosophila melanogaster; 6 H): 100% | mortality at 5000 ppm (Blattella germanica; 24 H): 100% | mortality at 5000 ppm (Blattella germanica; 48 H): 100% | mortality at 5000 ppm (Blattella germanica; 120 h, 5 Days): 100% | mortality at 5000 ppm (Sitophilus granarius; 4 H): 100% | mortality at 5000 ppm (Sitophilus granarius; 24 H): 100% | mortality at 5000 ppm (Sitophilus granarius; 120 h, 5 Days): 100% | mortality at 5000 ppm (Musca domestica; 24 H): 64% | mortality at 5000 ppm (Musca domestica larvae; 192 h, 8 Days): 90% | Relative efficacity in % as compound to controls (Meloidogynes spec): 52.8% | Number of galls per foot (Meloidogynes spec; control 44.4): 31.25 | Total number of galls (Meloidogynes spec; control 222): 125
